Measurements published in US20190375791A1, “NEW D-CONFIGURED CATESLYTIN PEPTIDE” (priority 2016, published 2019).
Values after ≈ are worked out from the molar mass of the structure shown. Where a SMILES comes first, the peptide text is derived from it. [ ]: non-standard residue; d: D form.

Assays:
Parvimonas micra = assay: microbe, parasite or virus in culture
Method: (§1) E. coli K-12 mutant E2146 was kindly provided by the Institut Pasteur of Paris. […] It is resistant to specific antibiotics, i.e. ampicillin, chloramphenicol, and kanamycin.
(§2) MIC was determined by broth microdilution. […] Experiments were performed with biological replicates.
(§3) To this aim, they determined the Fractional Inhibitory Concentration Index (FICI) of the combination between D-CTL and each antibiotic of reference.

E. coli (ATCC 25922) = assay: Resistance acquisition assay; type: cell-based, Escherichia coli; conditions: E. coli wild type cultured at sub-MIC (½ MIC) concentrations, day 28
Method: FIG. 1: Resistance acquisition assay of E. coli in the presence of D-CTL compared to ampicillin and cefotaxim. Bacteria were cultured in the presence of ½ MIC of the antibacterial agent for […]. The fold change in MIC was evaluated at the indicated days. The graph is representative of two experiments done independently.
E. coli (ATCC® 25922™ ) strain was sequentially passaged every day in the presence of the different antibacterial compounds: D-CTL, ampicillin or cefotaxime at ½ MIC during 28 days. The changes in the MICs were determined as previously described by broth microdilution at the indicated times.

[1] = tested on: Escherichia coli Amp^R Kan^RChlo^R; conditions: Escherichia coli Amp^R Kan^R Chlo^R (multi-resistant), 24 hours incubation
Method: as §1, §2, §3

[2] = Ca(OH)2 0,85 g/L pH 8,5, ½ MIC of D-CTL, HPLC
Method: The samples were then analyzed by HPLC. Chromatogram 1 corresponds to D-CTL, chromatogram 2 corresponds to D-CTL diluted in a saturated solution of Ca(OH)2 (pH 9). Absorbance is expressed in Unity of Milli-Absorbance (UmA) depending on the time in minutes (min).
Regarding the stability of D-CTL in Ca(OH)2, the peptide was incubated in a buffered Ca(OH)2 solution at 37° C. for 24 h. The pH of the Ca(OH)2 solution was buffered at the same pH than the one determined during the broth dilution assays. As negative controls, D-CTL in water was also incubated at 37° C. for 24 h.
(§4) The samples were analyzed by HPLC (Dionex, Ultimate 3000, CA USA) using a Nucleosil reverse-phase 300-5C18-colum (4,6×250 mm; particle size: 5 μm; porosity, 300 Å) (Macherey Nagel, France). Two solvents used were: 0.1% (v/v) TFA in water (Solvent A) and 0.09% (v/v) TFA in 70% (v/v) acetonitrile-water (solvent B). Absorbance was measured at 214 nm (A214 nm). The flow rate for elution was 0,7 mL/min with a gradient of solvent B as indicated on the chromatograms.

Enterococcus faecalis = type: cell-based; conditions: for bacterial growth inhibition of E. faecalis: peptides at 200 μg/mL
Method: Enterococcus faecalis (CCM 2541) was obtained from the Czechoslovac Collection of Microorganisms (Czech Republic) Bacteria were cultured in Anaerobe Basal Broth (Oxoid, France) at 37° C. in anaerobic conditions. Candida albicans (ATCC© 10231™) was cultured in Sabouraud medium (BD, France) supplemented with tetracycline (10 μg/mL) and cefotaxime (10 μg/mL).
An overnight culture of each pathogen was diluted (OD600 nm=0.001) and incubated at 37° C. in 96-plates in the presence of different concentrations of antimicrobial agents. When testing Ca(OH)2, the pH of the solution was measured with by pH meter. (CyberScan pH 510©, Eutech, France). After 24 h incubation, the OD620 nm was evaluated with a spectrophotometer (Multikan EX, ThermoScientific, France). Each assay was done at least in triplicate. For each set of assay, the standard deviation was determined.

[3] = 300 μg/mL, 37° C., 24 h, HPLC
Method: as §4

[4] = saliva from ten healthy volunteers, 24 hours
Method: Saliva from ten healthy volunteers was incubated with D-CTL or L-CTL for 24 hours and peptide stability was then assessed by LC-SRM. The analyses were performed on an Agilent 1100 Series HPLC system hyphenated to a QQQ-6490 triple quadrupole (Agilent Technologies). A total of 48 transitions (6 precursors) were monitored in an unscheduled mode within a total cycle time of 3 000 ms.
All samples were centrifuged at 14 000 g during 5 min at +4° C. and then diluted 3 times in water with 0.1% (v/v) HCOOH. For each sample, 2 μL were injected on the LC-SRM system. All separations were carried out on Agilent 1100 Series HPLC system (Agilent Technologies). For each analysis, the sample was loaded into a trapping column ZORBAX 300SB-C18 MicroBore Guard 5 gm, 1.0×17 mm (Agilent Technologies) at 50 μL/min with aqueous solution containing 0.1% (v/v) HCOOH and 2% CH3CN. After 3 min trapping, the column was put on-line with a ZORBAX 300SB-C18 3.5 μm, 0.3×150 mm column (Agilent Technologies). […]
For LC-SRM assay, each peptide was targeted with either an oxidized or non-oxidized state [[sequence]]. […] For each of the 6 precursors, 8 transitions were monitored (48 transitions in total) on a QQQ-6490 triple quadrupole mass spectrometer (Agilent technologies) in unscheduled mode and within a cycle time of 3 000 s. […] The reference value was calculated using the equation given by the supplier. […]

[5] = tested on: Staphylococcus aureus (MSSA); assay: microbe, parasite or virus in culture
Method: as §1, §2, §3

[6] = Peptide stability assay towards bacterial virulence factors (supernatants) using HPLC; type: in vitro ADME; conditions: 24 hours
Method: FIG. 5: Stability of D-CTL and L-CTL towards the virulence factors of different bacterial strains. […] Chromatograms 1 correspond to supernantant only, chromatograms 2 correspond to supernatant and peptide and chromatograms 3 corresponds to peptide only.
Bacteria were then centrifuged for lmin at 13000rpm and the supernatant filtered using a 0,2 μm Millex filter (Merck-Millipore) to remove any residual bacteria.

[7] = 19 μg peptide in 100 μL supernatant, 37° C., 24 h, HPLC
Excerpt: Absence of growth was interpreted as lack of viable microorganism.
Absorbance was monitored at 214 nm and the solvent system consisted of 0.1% (v/v) TFA in water (solvent A) and 0.09% (v/v) TFA in 70% (v/v) acetonitrile-water (solvent B).

Escherichia coli = assay: microbe, parasite or virus in culture; conditions: 24 h
Method: as §1, §2

Fusobacterium nucleatum = conditions: 24 h
Method: as §1, §2, §3

Prevotella intermedia = conditions: 24 h
Method: as §1, §2, §3

[8] = tested on: Staphylococcus aureus (MRSA); assay: microbe, parasite or virus in culture; conditions: 24 h
Method: as §1, §2, §3

Candida albicans = assay: microbe, parasite or virus in culture; type: cell-based
Method: Candida albicans (ATCC© 10231™ distributed by LGC Standards, Molsheim, France) was cultured in Sabouraud medium (Sigma-Aldrich) supplemented with tetracycline (10 μg/mL) and cefotaxime (10 μg/mL) at 37° C. for 24 h. Candida albicans (OD600 nm=0,001) were plated in 96-well plates and treated either with different concentrations of the peptides of interest, and/or with different concentrations of voriconazole (VCZ) (Sigma-Aldrich). As a positive control, cells were treated with 10 μg/mL VCZ. After 24 h incubation, yeast growth was assessed by optical density OD600 nm using a spectrophotometer (Multiscan EX, Shanghai, China).
The MFC is defined as the lowest concentration of peptide able to inhibit 100% of yeasts, and determined using a modified Gompertz model as described in Lambert et Pearson (Lambert and Pearson 2000, J Appl Microbiol, 88(5): 784-790).
The efficiency of the combination D-CTL/VCZ was determined by the calculation of the Fractional inhibitory concentration (FIC) index according to the following formula: FICI=FICD-CTL+FICVCZ. According to EUCAST (European Committee on Antimicrobial Suscpetibility Testing), the effect of the combination is synergistic if FICI≤0,5, additive if 0,5<FICI≤1, indifferent if 1<FICI<2, antagonistic if FICI≥2^40-41. • Results D-CTL Inhibits the Groth of C. albicans

## CC1(C)S[C@@H]2[C@H](NC(=O)[C@H](N)c3ccc(O)cc3)C(=O)N2[C@H]1C(=O)O [Amoxicillin]
Parvimonas micra; 24 h
  MIC: 0.45 µg/mL

## CC1(C)S[C@@H]2[C@H](NC(=O)[C@H](N)c3ccccc3)C(=O)N2[C@H]1C(=O)O [Ampicillin]
E. coli (ATCC 25922)
  change in MIC over the culture: 3 times the MIC

## CO/N=C(\C(=O)N[C@@H]1C(=O)N2C(C(=O)O)=C(COC(C)=O)CS[C@H]12)c1csc(N)n1 [Cefotaxim]
E. coli (ATCC 25922)
  change in MIC over the culture: 3 times the MIC
[1]
  MIC: 0.09 µg/mL

## CSCC[C@@H](NC(=O)[C@@H](CO)NC(=O)[C@H](N)CCCNC(=N)N)C(=O)N[C@H](CCCNC(=N)N)C(=O)N[C@H](CC(C)C)C(=O)N[C@H](CO)C(=O)N[C@H](Cc1ccccc1)C(=O)N[C@H](CCCNC(=N)N)C(=O)N[C@H](C)C(=O)N[C@H](CCCNC(=N)N)C(=O)NCC(=O)N[C@H](Cc1ccc(O)cc1)C(=O)NCC(=O)N[C@H](Cc1ccccc1)C(=O)N[C@H](CCCNC(=N)N)C(=O)O [D-CTL] (H-[dR][dS][dM][dR][dL][dS][dF][dR][dA][dR]G[dY]G[dF][dR]-OH; N-terminus and C-terminus assumed)
[2]
  stability in a buffered solution of Ca(OH)2: stable
Enterococcus faecalis
  MIC on E. faecalis: 156 µg/mL (≈ 83.9 µM)
[3]
  degradation in the supernatant of E. faecalis: not degraded
[4]
  stability in saliva: stable
[5]; Staphylococcus aureus (MSSA), 24 hours incubation
  MIC: 24 µg/mL
Parvimonas micra; 24 hours incubation
  MIC: 23 µg/mL
[6]; all bacterial supernatants tested, 37° C.
  degradation in bacterial supernatants: not degraded
[7]
  stability in the supernatant of Candida albicans: remains stable
Escherichia coli
  MIC: 8 µg/mL (≈ 4.3 µM)
[1]
  MIC: 8.4 µg/mL
Fusobacterium nucleatum
  MIC: 22.4 µg/mL
Prevotella intermedia
  MIC: 10 µg/mL

## NC[C@H]1O[C@H](O[C@H]2[C@H](O)[C@@H](O[C@H]3O[C@H](CO)[C@@H](O)[C@H](N)[C@H]3O)[C@H](N)C[C@@H]2N)[C@H](O)[C@@H](O)[C@@H]1O [Kanamycin]
Escherichia coli; Escherichia coli
  MIC: 21.6 µg/mL (≈ 44.6 µM)

## CSCC[C@H](NC(=O)[C@H](CO)NC(=O)[C@@H](N)CCCNC(=N)N)C(=O)N[C@@H](CCCNC(=N)N)C(=O)N[C@@H](CC(C)C)C(=O)N[C@@H](CO)C(=O)N[C@@H](Cc1ccccc1)C(=O)N[C@@H](CCCNC(=N)N)C(=O)N[C@@H](C)C(=O)N[C@@H](CCCNC(=N)N)C(=O)NCC(=O)N[C@@H](Cc1ccc(O)cc1)C(=O)NCC(=O)N[C@@H](Cc1ccccc1)C(=O)N[C@@H](CCCNC(=N)N)C(=O)O [L-CTL] (H-RSMRLSFRARGYGFR-OH; N-terminus and C-terminus assumed)
[4]
  stability in saliva: unlike L-CTL, D-CTL was stable
[8]
  MIC: 37 µg/mL
[5]; 24 h
  MIC: 40 µg/mL
Parvimonas micra; 24 hours incubation
  MIC: 120 µg/mL
[6]; supernatant of E. coli multiresistant strain
  degradation by virulence factors: degraded
[6]; supernatant of E. coli wild type strain
  degradation by virulence factors: degraded
[7]
  stability in the supernatant of Candida albicans: degraded
Escherichia coli
  MIC: 75 µg/mL (≈ 40.3 µM)
[1]
  MIC: 150 µg/mL
Fusobacterium nucleatum
  MIC: 125.3 µg/mL
Prevotella intermedia
  MIC: 148.6 µg/mL

## COc1cccc(OC)c1C(=O)N[C@@H]1C(=O)N2[C@@H]1SC(C)(C)[C@@H]2C(=O)O [Methicillin]
[5]; Staphylococcus aureus, MSSA, 24 h
  MIC: 1.2 µg/mL

## C[C@@H](c1ncncc1F)[C@](O)(Cn1cncn1)c1ccc(F)cc1F [VCZ, voriconazole]
Candida albicans; Candida albicans, 24 h, modified Gompertz model, read-out: minimal fungicidal concentration (MFC)
  MFC: 0.07 µg/mL
Candida albicans; combination D-CTL/VCZ on Candida albicans
  FIC: 0.25

## CN[C@H](CC(C)C)C(=O)N[C@H]1C(=O)N[C@@H](CC(N)=O)C(=O)N[C@H]2C(=O)N[C@H]3C(=O)N[C@H](C(=O)N[C@H](C(=O)O)c4cc(O)cc(O)c4-c4cc3ccc4O)[C@H](O)c3ccc(c(Cl)c3)Oc3cc2cc(c3O[C@@H]2O[C@H](CO)[C@@H](O)[C@H](O)[C@H]2O[C@H]2C[C@](C)(N)[C@H](O)[C@H](C)O2)Oc2ccc(cc2Cl)[C@H]1O [Vancomycin]
[8]; Staphylococcus aureus, MRSA
  MIC: 0.8 µg/mL

## RILSILRHQNLLKELQDLAL [CHR, bovine chromofungin bCgA47-70]
Enterococcus faecalis
  bacterial growth inhibition of E. faecalis: no antimicrobial activity

## RSMRLSFRARGYGFRGPGLQL [CAT]
Enterococcus faecalis
  bacterial growth inhibition of E. faecalis: no antimicrobial activity
